In paper PMC8398847, “Isavuconazole: Thermodynamic Evaluation of Processes Sublimation, Dissolution and Partition in Pharmaceutically Relevant Media” (Molecules, 2021):

Experiment: Solubility data modeling (modified Apelblat and van’t Hoff equations)
Description: The modified Apelblat model developed for nonideal solutions is one of the most frequently used models for prediction and correlation of solubility data and can be expressed as follows:(21) lnx=A+B/T/K+Cln(T/K) where x is the compound solubility in the studied solvents, which can be determined by Equation (8); T is the absolute temperature; A, B and C are three empirical constants of the equation. The A and B values represent changes in the solution behavior as a result of the nonideality of the solute solubility, whereas C reflects the connection between the melting point and enthalpy. Despite its simple mathematical expression, this model can ensure high accuracy of prediction of the solute solubility at a variety of temperature values.
The van’t Hoff equation can be used to calculate the relationship between the solubility of solute and temperature. The equation can be simplified as Equation (22). (22) lnx=A+B/(T/K) where x represents the mole fraction solubility of compound. T is the absolute temperature and A, B are the regression parameters obtained using multivariable least-square method.

xcal modified Apelblat equation (1-octanol, 293.15 K): 6.2160·10^−3
xcal van’t Hoff equation (1-octanol, 293.15 K): 6.2245·10^−3
xcal modified Apelblat equation (1-octanol, 298.15 K): 7.4880·10^−3
xcal van’t Hoff equation (1-octanol, 298.15 K): 7.4831·10^−3
xcal modified Apelblat equation (1-octanol, 303.15 K): 8.9532·10^−3
xcal van’t Hoff equation (1-octanol, 303.15 K): 8.9416·10^−3
xcal modified Apelblat equation (1-octanol, 308.15 K): 10.629·10^−3
xcal van’t Hoff equation (1-octanol, 308.15 K): 10.623·10^−3
xcal modified Apelblat equation (1-octanol, 313.15 K): 12.534·10^−3
xcal van’t Hoff equation (1-octanol, 313.15 K): 12.551·10^−3
xcal modified Apelblat equation (1-propanol, 293.15 K): 7.8833·10^−3
xcal van’t Hoff equation (1-propanol, 293.15 K): 7.8924·10^−3
xcal modified Apelblat equation (1-propanol, 298.15 K): 9.5597·10^−3
xcal van’t Hoff equation (1-propanol, 298.15 K): 9.5750·10^−3
xcal modified Apelblat equation (1-propanol, 303.15 K): 11.528·10^−3
xcal van’t Hoff equation (1-propanol, 303.15 K): 11.542·10^−3
xcal modified Apelblat equation (1-propanol, 308.15 K): 13.827·10^−3
xcal van’t Hoff equation (1-propanol, 308.15 K): 13.830·10^−3
xcal modified Apelblat equation (1-propanol, 313.15 K): 16.501·10^−3
xcal van’t Hoff equation (1-propanol, 313.15 K): 16.475·10^−3
xcal modified Apelblat equation (buffer pH 1.2, 293.15 K): 6.8301·10^−7
xcal van’t Hoff equation (buffer pH 1.2, 293.15 K): 6.8234·10^−7
xcal modified Apelblat equation (buffer pH 1.2, 298.15 K): 7.6469·10^−7
xcal van’t Hoff equation (buffer pH 1.2, 298.15 K): 7.6519·10^−7
xcal modified Apelblat equation (buffer pH 1.2, 303.15 K): 8.5388·10^−7
xcal van’t Hoff equation (buffer pH 1.2, 303.15 K): 8.5488·10^−7
xcal modified Apelblat equation (buffer pH 1.2, 308.15 K): 9.5109·10^−7
xcal van’t Hoff equation (buffer pH 1.2, 308.15 K): 9.5164·10^−7
xcal modified Apelblat equation (buffer pH 1.2, 313.15 K): 10.568·10^−7
xcal van’t Hoff equation (buffer pH 1.2, 313.15 K): 10.557·10^−7
xcal modified Apelblat equation (buffer pH 2.0, 293.15 K): 1.8489·10^−7
xcal van’t Hoff equation (buffer pH 2.0, 293.15 K): 1.8386·10^−7
xcal modified Apelblat equation (buffer pH 2.0, 298.15 K): 2.2301·10^−7
xcal van’t Hoff equation (buffer pH 2.0, 298.15 K): 2.2353·10^−7
xcal modified Apelblat equation (buffer pH 2.0, 303.15 K): 2.6872·10^−7
xcal van’t Hoff equation (buffer pH 2.0, 303.15 K): 2.7002·10^−7
xcal modified Apelblat equation (buffer pH 2.0, 308.15 K): 3.2354·10^−7
xcal van’t Hoff equation (buffer pH 2.0, 308.15 K): 3.2418·10^−7
xcal modified Apelblat equation (buffer pH 2.0, 313.15 K): 3.8914·10^−7
xcal van’t Hoff equation (buffer pH 2.0, 313.15 K): 3.8694·10^−7
xcal modified Apelblat equation (buffer pH 7.4, 293.15 K): 1.1915·10^−7
xcal van’t Hoff equation (buffer pH 7.4, 293.15 K): 1.1936·10^−7
xcal modified Apelblat equation (buffer pH 7.4, 298.15 K): 1.4708·10^−7
xcal van’t Hoff equation (buffer pH 7.4, 298.15 K): 1.4693·10^−7
xcal modified Apelblat equation (buffer pH 7.4, 303.15 K): 1.7998·10^−7
xcal van’t Hoff equation (buffer pH 7.4, 303.15 K): 1.7964·10^−7
xcal modified Apelblat equation (buffer pH 7.4, 308.15 K): 2.1840·10^−7
xcal van’t Hoff equation (buffer pH 7.4, 308.15 K): 2.1821·10^−7
xcal modified Apelblat equation (buffer pH 7.4, 313.15 K): 2.6294·10^−7
xcal van’t Hoff equation (buffer pH 7.4, 313.15 K): 2.6341·10^−7
xcal modified Apelblat equation (ethanol, 293.15 K): 0.9240·10^−2
xcal van’t Hoff equation (ethanol, 293.15 K): 0.9213·10^−2
xcal modified Apelblat equation (ethanol, 298.15 K): 1.1326·10^−2
xcal van’t Hoff equation (ethanol, 298.15 K): 1.1348·10^−2
xcal modified Apelblat equation (ethanol, 303.15 K): 1.3835·10^−2
xcal van’t Hoff equation (ethanol, 303.15 K): 1.3883·10^−2
xcal modified Apelblat equation (ethanol, 308.15 K): 1.6844·10^−2
xcal van’t Hoff equation (ethanol, 308.15 K): 1.6873·10^−2
xcal modified Apelblat equation (ethanol, 313.15 K): 2.0441·10^−2
xcal van’t Hoff equation (ethanol, 313.15 K): 2.0379·10^−2
xcal modified Apelblat equation (hexane, 293.15 K): 5.5187·10^−5
xcal van’t Hoff equation (hexane, 293.15 K): 5.5171·10^−5
xcal modified Apelblat equation (hexane, 298.15 K): 7.0549·10^−5
xcal van’t Hoff equation (hexane, 298.15 K): 7.0584·10^−5
xcal modified Apelblat equation (hexane, 303.15 K): 8.9506·10^−5
xcal van’t Hoff equation (hexane, 303.15 K): 8.9572·10^−5
xcal modified Apelblat equation (hexane, 308.15 K): 11.274·10^−5
xcal van’t Hoff equation (hexane, 308.15 K): 11.279·10^−5
xcal modified Apelblat equation (hexane, 313.15 K): 14.103·10^−5
xcal van’t Hoff equation (hexane, 313.15 K): 14.099·10^−5
SMILES: C[C@@H](c1nc(-c2ccc(C#N)cc2)cs1)[C@](O)(Cn1cncn1)c1cc(F)ccc1F [IVZ, Isavuconazole]
